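Five concentrations, 48 hours, 96-well plates. Definition used: TGI = concentration required for complete inhibition of growth.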
How the values were obtained:
Test in all cases: growth of human tumour cells (NCI), 48 h
[1] = test system: NCI-H226 lung
[2] = test system: CCRF-CEM leukemia
[3] = test system: SF-539 CNS
[4] = test system: SK-MEL-5 melanoma
[5] = test system: COLO 205 colon
[6] = test system: IGROV1 ovarian
[7] = test system: UACC-257 melanoma
[8] = test system: DMS 273 small cell lung
[9] = test system: XF 498 CNS
[10] = test system: SNB-78 CNS
[11] = test system: 786-0 renal
[12] = test system: OVCAR-4 ovarian
[13] = test system: NCI-H23 lung
[14] = test system: HCT-15 colon
[15] = test system: TK-10 renal
[16] = test system: ACHN renal
[17] = test system: SR leukemia
[18] = test system: HCC-2998 colon
[19] = test system: RPMI-8226 leukemia
[20] = test system: UACC-62 melanoma
[21] = test system: SK-MEL-28 melanoma
[22] = test system: LOX IMVI melanoma
[23] = test system: MALME-3M melanoma
[24] = test system: A498 renal
[25] = test system: OVCAR-3 ovarian
[26] = test system: SF-268 CNS
[27] = test system: HL-60(TB) leukemia
[28] = test system: SW-620 colon
[29] = test system: A549 NSCLC
[30] = test system: HCT-116 colon
[31] = test system: M19-MEL melanoma
[32] = test system: K-562 leukemia
[33] = test system: HOP-92 NSCLC
[34] = test system: MOLT-4 leukemia
[35] = test system: EKVX NSCLC
[36] = test system: LXFL 529 NSCLC
[37] = test system: SF-295 CNS
[38] = test system: HT29 colon
[39] = test system: SK-OV-3 ovarian
[40] = test system: NCI-H460 lung
[41] = test system: NCI-H522 lung
[42] = test system: OVCAR-5 ovarian
[43] = test system: KM20L2 colon
[44] = test system: M14 melanoma
[45] = test system: KM12 colon
[46] = test system: SK-MEL-2 melanoma
[47] = test system: DMS 114 small cell lung
[48] = test system: UO-31 renal
[49] = test system: SN12C renal
[50] = test system: OVCAR-8 ovarian
[51] = test system: HOP-62 NSCLC
[52] = test system: SNB-19 CNS
[53] = test system: RXF 393 renal
[54] = test system: U251 CNS
[55] = test system: DLD-1 colon
[56] = test system: SNB-75 CNS
[57] = test system: CAKI-1 renal

CC(=O)NNc1nc(C)c(C(=O)NNC(=O)C(=O)Nc2c(C)cccc2C(C)C)s1
TGI [1]: > 100 µM | TGI [2]: > 100 µM | TGI [3]: > 100 µM | TGI [4]: > 100 µM | TGI [5]: > 100 µM | TGI [6]: > 100 µM | TGI [7]: > 100 µM | TGI [8]: > 100 µM | TGI [9]: > 100 µM | TGI [10]: > 100 µM | TGI [11]: > 100 µM | TGI [12]: > 100 µM | TGI [13]: > 100 µM | TGI [14]: > 100 µM | TGI [15]: > 100 µM | TGI [16]: > 100 µM | TGI [17]: > 100 µM | TGI [18]: > 100 µM | TGI [19]: > 100 µM | TGI [20]: > 100 µM | TGI [21]: > 100 µM | TGI [22]: > 100 µM | TGI [23]: > 100 µM | TGI [24]: > 100 µM | TGI [25]: > 100 µM | TGI [26]: > 100 µM | TGI [27]: > 100 µM | TGI [28]: > 100 µM | TGI [29]: > 100 µM | TGI [30]: > 100 µM | TGI [31]: > 100 µM | TGI [32]: > 100 µM | TGI [33]: > 100 µM | TGI [34]: > 100 µM | TGI [35]: > 100 µM | TGI [36]: > 100 µM | TGI [37]: > 100 µM | TGI [38]: > 100 µM | TGI [39]: > 100 µM | TGI [40]: > 100 µM | TGI [41]: > 100 µM | TGI [42]: > 100 µM | TGI [43]: > 100 µM | TGI [44]: > 100 µM | TGI [45]: > 100 µM | TGI [46]: > 100 µM | TGI [47]: > 100 µM | TGI [48]: > 100 µM | TGI [49]: > 100 µM | TGI [50]: > 100 µM | TGI [51]: > 100 µM | TGI [52]: > 100 µM

CCOC(=O)C(Cc1c(C=O)[nH]c2ccccc12)(NC(=O)c1ccccc1)C(=O)OCC
TGI [1]: 45.9 µM | TGI [2]: 39 µM | TGI [3]: 30.3 µM | TGI [53]: 26 µM | TGI [54]: 25.5 µM | TGI [4]: 24.5 µM | TGI [5]: 34.7 µM | TGI [6]: 43.7 µM | TGI [7]: 39.2 µM | TGI [9]: 32.1 µM | TGI [11]: 34.7 µM | TGI [13]: 37.1 µM | TGI [14]: 29.8 µM | TGI [15]: 69.9 µM | TGI [16]: 39.3 µM | TGI [17]: > 100 µM | TGI [18]: 24.6 µM | TGI [19]: > 100 µM | TGI [21]: 34.2 µM | TGI [55]: 25 µM | TGI [23]: 33.9 µM | TGI [25]: 40.3 µM | TGI [26]: 39.5 µM | TGI [27]: > 100 µM | TGI [28]: 32.1 µM | TGI [29]: 42.2 µM | TGI [31]: 31.8 µM | TGI [32]: 45.2 µM | TGI [33]: 31.3 µM | TGI [34]: 37.1 µM | TGI [35]: 42.7 µM | TGI [37]: 33 µM | TGI [38]: 37.2 µM | TGI [39]: 79.8 µM | TGI [40]: 59.7 µM | TGI [42]: 35.3 µM | TGI [44]: 33.7 µM | TGI [45]: 26.9 µM | TGI [46]: 32.4 µM | TGI [47]: 39 µM | TGI [48]: 62.4 µM | TGI [49]: 26.6 µM | TGI [50]: 65.7 µM | TGI [52]: 18.4 µM

O=C(Nc1ccc(F)cc1)C(=O)C(C(=O)c1ccccc1F)C1OC(=O)c2ccccc21 (centres undefined)
TGI [1]: 63.5 µM | TGI [56]: > 100 µM | TGI [2]: 90.8 µM | TGI [3]: 89.9 µM | TGI [53]: > 100 µM | TGI [54]: 66.1 µM | TGI [4]: > 100 µM | TGI [5]: > 100 µM | TGI [6]: > 100 µM | TGI [7]: > 100 µM | TGI [8]: > 100 µM | TGI [9]: > 100 µM | TGI [10]: > 100 µM | TGI [12]: > 100 µM | TGI [13]: > 100 µM | TGI [14]: > 100 µM | TGI [15]: > 100 µM | TGI [16]: > 100 µM | TGI [17]: 59.6 µM | TGI [18]: > 100 µM | TGI [19]: > 100 µM | TGI [20]: > 100 µM | TGI [21]: > 100 µM | TGI [22]: > 100 µM | TGI [55]: > 100 µM | TGI [24]: > 100 µM | TGI [26]: > 100 µM | TGI [27]: > 100 µM | TGI [28]: > 100 µM | TGI [29]: > 100 µM | TGI [30]: > 100 µM | TGI [32]: > 100 µM | TGI [33]: > 100 µM | TGI [34]: > 100 µM | TGI [35]: > 100 µM | TGI [36]: > 100 µM | TGI [37]: > 100 µM | TGI [38]: > 100 µM | TGI [39]: > 100 µM | TGI [57]: > 100 µM | TGI [40]: > 100 µM | TGI [41]: 71.8 µM | TGI [42]: > 100 µM | TGI [43]: > 100 µM | TGI [44]: > 100 µM | TGI [45]: > 100 µM | TGI [46]: > 100 µM | TGI [47]: > 100 µM | TGI [48]: > 100 µM | TGI [49]: > 100 µM | TGI [50]: > 100 µM | TGI [51]: > 100 µM | TGI [52]: > 100 µM

Source: PubChem BioAssay (NCI)
